From US20250195602A1, “Compositions and Methods for Treating Neuropathy” (Creative Bio-Peptides, Inc., priority 2021, published 2025)
Read-outs that look alike come from different tables or passages of the source.

Key:
[1] = test system: chemotherapy induced peripheral neuropathy (CIPN) caused by paclitaxel
Experimental: Morphine was used as a positive control for pain response.
The ability of RAP-103 was tested to treat chemotherapy induced peripheral neuropathy (CIPN) caused by paclitaxel in rodents. This assay uses the chemotherapeutic agent paclitaxel to elicit a chronic pain state. Once established, pain in these animals can persist for weeks.
Rats were given i.p. injections of paclitaxel (2 mg/kg) on days 0, 2, 4, and 6 to induce a chronic pain state. […] On day 21 morphine (2 mg/Kg) was also administered to animals as a positive control. Pain was assessed 60 minutes after morphine or RAP-103 administration on the left rear paw on day 21 with a series of von Frey filaments with logarithmically incrementing stiffness applied perpendicular to the midplantar region of the hind paw. The paw withdrawal force (grams, g) threshold was determined.

[2] = Clinical observations and body weights over seven days after RAP-103 dosing (acute toxicity); assay type: in vivo, Rhesus macaques; Macaca mulatta
[3] = Pharmacokinetics of RAP-103 in non-human primates (plasma levels, bioavailability); assay type: in vivo, Rhesus macaques; Macaca mulatta; conditions: for bioavailability: rhesus monkey, in vivo
Experimental: In non-human primates (rhesus monkeys) RAP-103 was dosed once on Day 1 by intravenous bolus injection at 1 mg/kg and plasma levels determined. […] Drug in plasma after a single IV dose (1 mg/Kg) was still measurable at anticipated therapeutic levels 96 hrs. post-dose in non-human primates as shown in FIG. 2B.

[4] = Pharmacokinetics and brain entry of RAP-103 in guinea pigs (oral gavage and IV); assay type: in vivo
[5] = Pharmacokinetics and brain entry of RAP-103 in rats (oral gavage and IV); assay type: in vivo
[6] = IV or oral gavage dosing, FIG. 2A

C[C@H](O)[C@@H](N)C(=O)N[C@@H](C(=O)N[C@H](CC(N)=O)C(=O)N[C@H](Cc1ccc(O)cc1)C(=O)N[C@@H](C(=O)O)[C@H](C)O)[C@H](C)O [RAP-103, All D-peptide-Thr-Thr-Asn-Tyr-Thr]
Treatment of paclitaxel induced CIPN compared with standard of care (morphine) ([1]; animal model of CIPN, RAP-103 0.05 mg/kg vs morphine 2 mg/Kg): at least equivalent
Dose lower on a weight basis than morphine at at least equivalent effect ([1]; animal model of paclitaxel induced CIPN): about 40 fold
Paw withdraw threshold compared to vehicle ([1]; rats treated with paclitaxel, FIG. 4): increased paw withdraw threshold
Effect on chronic pain caused by repeated administration of paclitaxel ([1]; rats, 0.05 mg/kg daily i.p. days 17-21 post paclitaxel, assessed 60 minutes after dosing on day 21, FIG. 4): reduced chronic pain
Acute toxicity [2]: no acute toxicity
RAP-103-related changes in body weights [2]: no RAP-103-related changes
RAP-103-related changes in clinical observations [2]: no RAP-103-related changes
Brain entry ([3]; non-human primates (Rhesus macaque), oral and IV dosing): quickly entered the brain
Time post-dose at which drug in plasma was still measurable at anticipated therapeutic levels ([3]; non-human primates, single IV dose 1 mg/Kg, FIG. 2B): ≥ 96 h
bioavailability ([3]; 1 mg/kg, female rhesus monkeys, 1 mg/kg dose level, read-out: Absolute bioavailability): 88%
bioavailability ([3]; po, 1 mg/kg, male rhesus monkeys, 1 mg/kg dose level, read-out: Absolute bioavailability): 89%
bioavailability ([3]; po, 1 mg/kg, non-human primates, read-out: Oral bioavailability): 88%
AUC 0-T, male versus female monkeys ([3]; rhesus monkeys, 1 mg/kg): comparable
Cmax, male versus female monkeys ([3]; rhesus monkeys, 1 mg/kg): comparable
Brain level compared to plasma levels [4]: preferentially enters the brain
Brain entry by oral compared to IV dosing ([4]; FIG. 2A): preferentially entered the brain by oral
Brain entry [4, 6]: quickly entered the brain
Persistence at therapeutic levels in brain [4, 6]: at least 24 hrs
Brain level compared to plasma levels [5]: preferentially enters the brain
Brain entry by oral compared to IV dosing ([5]; FIG. 2A): preferentially entered the brain by oral
Brain entry [5, 6]: quickly entered the brain
Persistence at therapeutic levels in brain [5, 6]: at least 24 hrs
